According to ChEMBL document CHEMBL5465560, “Selectivity Literature for EUbOPEN Chemogenomic Library” (2024):
Values belong to the compound of their own block, whether it stands above or below them.

Key:
[1] = biological target: T1, Alpha-1A adrenergic receptor (Homo sapiens) (UniProt P35348); experiment: Selectivity interaction (Panel of non-epigenetic targets (kinases, GPCRs, ion channels, and transporters, Eurofins) ) EUB0000271b ADRA1A; conditions: at 1 µM
T1 sequence (whole entry): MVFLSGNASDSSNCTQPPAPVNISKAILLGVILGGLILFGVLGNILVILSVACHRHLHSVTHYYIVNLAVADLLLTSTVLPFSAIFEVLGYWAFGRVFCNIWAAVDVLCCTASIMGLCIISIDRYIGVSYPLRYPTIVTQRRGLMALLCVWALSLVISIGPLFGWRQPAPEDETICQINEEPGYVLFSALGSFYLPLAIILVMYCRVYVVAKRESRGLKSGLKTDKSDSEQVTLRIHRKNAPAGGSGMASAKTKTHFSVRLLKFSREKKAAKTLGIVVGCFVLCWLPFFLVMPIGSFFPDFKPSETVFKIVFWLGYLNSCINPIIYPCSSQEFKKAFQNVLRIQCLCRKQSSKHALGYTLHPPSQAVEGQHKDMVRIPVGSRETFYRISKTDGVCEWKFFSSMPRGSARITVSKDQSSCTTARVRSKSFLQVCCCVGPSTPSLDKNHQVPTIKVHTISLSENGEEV

[2] = biological target: Serine/threonine-protein kinase PAK 2 (Homo sapiens) (UniProt Q13177); conditions: at 10 µM
[3] = biological target: Mitogen-activated protein kinase 11 (Homo sapiens) (UniProt Q15759); experiment: Selectivity interaction (Millipore kinase profiler) EUB0000124b MAPK11; conditions: at 10 µM
Mitogen-activated protein kinase 11 (Homo sapiens), sequence (Q15759 whole entry): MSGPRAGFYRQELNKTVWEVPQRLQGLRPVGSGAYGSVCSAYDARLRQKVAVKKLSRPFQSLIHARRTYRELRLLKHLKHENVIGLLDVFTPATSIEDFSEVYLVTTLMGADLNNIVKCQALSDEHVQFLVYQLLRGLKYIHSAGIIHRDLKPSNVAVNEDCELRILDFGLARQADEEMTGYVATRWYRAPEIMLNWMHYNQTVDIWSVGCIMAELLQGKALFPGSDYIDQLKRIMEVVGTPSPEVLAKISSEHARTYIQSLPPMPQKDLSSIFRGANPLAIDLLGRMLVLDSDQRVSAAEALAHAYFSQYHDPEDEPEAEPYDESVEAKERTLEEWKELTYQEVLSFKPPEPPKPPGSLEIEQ

[4] = biological target: T2, Inhibitor of nuclear factor kappa-B kinase subunit alpha (Homo sapiens) (UniProt O15111); experiment: Selectivity interaction (Millipore kinase profiler) EUB0000124b CHUK; conditions: at 10 µM
T2 sequence (whole entry): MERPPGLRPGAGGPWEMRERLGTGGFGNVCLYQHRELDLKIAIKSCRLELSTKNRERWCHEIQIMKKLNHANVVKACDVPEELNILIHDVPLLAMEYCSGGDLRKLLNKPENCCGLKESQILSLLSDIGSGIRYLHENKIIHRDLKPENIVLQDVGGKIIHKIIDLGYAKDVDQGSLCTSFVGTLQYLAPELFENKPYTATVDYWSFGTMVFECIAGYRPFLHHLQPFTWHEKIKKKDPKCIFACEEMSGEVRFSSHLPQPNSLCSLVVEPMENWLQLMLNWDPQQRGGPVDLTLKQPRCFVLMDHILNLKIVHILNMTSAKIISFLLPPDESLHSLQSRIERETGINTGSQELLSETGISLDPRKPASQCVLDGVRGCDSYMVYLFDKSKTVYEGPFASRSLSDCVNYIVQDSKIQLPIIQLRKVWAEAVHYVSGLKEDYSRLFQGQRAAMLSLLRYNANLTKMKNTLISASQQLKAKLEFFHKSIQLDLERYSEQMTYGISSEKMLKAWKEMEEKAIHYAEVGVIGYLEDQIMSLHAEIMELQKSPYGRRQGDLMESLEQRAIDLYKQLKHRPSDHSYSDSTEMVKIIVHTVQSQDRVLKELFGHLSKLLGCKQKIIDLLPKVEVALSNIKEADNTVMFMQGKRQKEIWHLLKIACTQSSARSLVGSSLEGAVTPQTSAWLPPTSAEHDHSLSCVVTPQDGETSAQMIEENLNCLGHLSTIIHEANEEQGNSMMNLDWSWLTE

[5] = biological target: Tyrosine-protein kinase Fgr (Homo sapiens) (UniProt P09769); experiment: Selectivity interaction (KinomeScan (DiscoverX)) EUB0000618a FGR; conditions: at 10 µM
Insulin receptor [6] = biological target: T3, Insulin receptor (Homo sapiens, UniProt P06213); experiment: Selectivity interaction (SelectScreen profiling (Invitrogen)) EUB0000607a INSR; conditions: at 2 µM
T3 sequence (P06213 28-758 limits assumed): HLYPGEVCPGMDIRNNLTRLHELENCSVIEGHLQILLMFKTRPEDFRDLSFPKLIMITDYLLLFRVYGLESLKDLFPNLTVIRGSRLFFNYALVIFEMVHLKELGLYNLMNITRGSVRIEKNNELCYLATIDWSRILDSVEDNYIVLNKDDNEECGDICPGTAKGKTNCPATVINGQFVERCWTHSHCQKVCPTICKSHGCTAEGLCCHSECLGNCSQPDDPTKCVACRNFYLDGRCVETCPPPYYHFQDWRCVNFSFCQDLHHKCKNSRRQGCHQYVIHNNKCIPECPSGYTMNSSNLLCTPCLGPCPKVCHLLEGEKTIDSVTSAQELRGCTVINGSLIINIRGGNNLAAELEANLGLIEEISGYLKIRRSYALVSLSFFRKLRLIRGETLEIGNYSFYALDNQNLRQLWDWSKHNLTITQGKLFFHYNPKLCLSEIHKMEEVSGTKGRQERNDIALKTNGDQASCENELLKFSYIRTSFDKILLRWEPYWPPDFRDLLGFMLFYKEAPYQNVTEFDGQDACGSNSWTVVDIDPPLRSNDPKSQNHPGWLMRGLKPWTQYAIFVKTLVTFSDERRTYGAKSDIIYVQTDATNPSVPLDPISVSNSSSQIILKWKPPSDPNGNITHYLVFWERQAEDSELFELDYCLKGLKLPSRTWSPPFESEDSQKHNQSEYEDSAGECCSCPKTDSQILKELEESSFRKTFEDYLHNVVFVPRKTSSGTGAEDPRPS
T3 sequence (P06213 763-1382 limits assumed): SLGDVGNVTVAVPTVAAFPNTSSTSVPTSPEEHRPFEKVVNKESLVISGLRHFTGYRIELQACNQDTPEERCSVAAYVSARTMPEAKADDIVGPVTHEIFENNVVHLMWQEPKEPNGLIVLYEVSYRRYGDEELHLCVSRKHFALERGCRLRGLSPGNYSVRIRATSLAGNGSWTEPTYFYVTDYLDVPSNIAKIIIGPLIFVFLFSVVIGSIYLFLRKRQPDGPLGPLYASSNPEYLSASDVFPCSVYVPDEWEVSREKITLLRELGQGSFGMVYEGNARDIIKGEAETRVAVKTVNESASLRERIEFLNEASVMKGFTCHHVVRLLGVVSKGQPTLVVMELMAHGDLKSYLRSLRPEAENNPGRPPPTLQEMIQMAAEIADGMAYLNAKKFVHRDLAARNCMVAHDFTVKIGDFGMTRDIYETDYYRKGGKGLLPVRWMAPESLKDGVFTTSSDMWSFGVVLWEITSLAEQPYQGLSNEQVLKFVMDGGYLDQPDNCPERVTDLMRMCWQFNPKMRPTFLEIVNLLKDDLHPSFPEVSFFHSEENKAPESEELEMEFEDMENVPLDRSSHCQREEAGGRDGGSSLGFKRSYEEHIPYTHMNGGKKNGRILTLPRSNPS

[7] = biological target: Serine/threonine-protein kinase B-raf (Homo sapiens) (UniProt P15056); experiment: Selectivity interaction (SelectScreen profiling (Invitrogen)) EUB0000607a BRAF; conditions: at 2 µM
[8] = biological target: Glycogen synthase kinase-3 alpha (Homo sapiens, UniProt P49840); conditions: at 10 µM
[9] = test system: Proto-oncogene tyrosine-protein kinase receptor Ret (Homo sapiens), P07949 [M918T]; conditions: at 10 µM
[10] = biological target: Fibroblast growth factor receptor 4 (Homo sapiens, UniProt P22455); conditions: at 10 µM
[11] = biological target: Serine/threonine-protein kinase 25 (Homo sapiens) (UniProt O00506); experiment: Selectivity interaction (ActivX KiNativ screen (kinase selectivity in THP-1 cell lysates)) EUB0000639a STK25; format: subcellular; conditions: lysate
Serine/threonine-protein kinase 25 (Homo sapiens), sequence (O00506 whole entry, looked up): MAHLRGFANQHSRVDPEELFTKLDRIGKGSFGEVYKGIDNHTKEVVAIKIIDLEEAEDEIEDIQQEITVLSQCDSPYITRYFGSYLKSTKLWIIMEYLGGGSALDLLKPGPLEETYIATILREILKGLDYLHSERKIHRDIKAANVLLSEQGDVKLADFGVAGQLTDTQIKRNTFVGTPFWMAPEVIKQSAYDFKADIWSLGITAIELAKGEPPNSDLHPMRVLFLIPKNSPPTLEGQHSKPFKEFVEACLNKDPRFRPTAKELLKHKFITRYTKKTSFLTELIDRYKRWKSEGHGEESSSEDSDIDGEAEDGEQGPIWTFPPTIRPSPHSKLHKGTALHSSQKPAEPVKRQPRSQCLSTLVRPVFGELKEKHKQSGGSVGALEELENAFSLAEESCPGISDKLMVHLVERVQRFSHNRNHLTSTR

[12] = biological target: Platelet-derived growth factor receptor beta (Homo sapiens, UniProt P09619); experiment: Selectivity interaction (KinomeScan (DiscoverX)) EUB0000229b PDGFRB; conditions: at 10 µM
[13] = biological target: Tyrosine-protein kinase Fer (Homo sapiens) (UniProt P16591); experiment: Selectivity interaction (KinomeScan (DiscoverX)) EUB0000229b FER; conditions: at 10 µM
Tyrosine-protein kinase Fer (Homo sapiens), sequence (P16591 whole entry, looked up): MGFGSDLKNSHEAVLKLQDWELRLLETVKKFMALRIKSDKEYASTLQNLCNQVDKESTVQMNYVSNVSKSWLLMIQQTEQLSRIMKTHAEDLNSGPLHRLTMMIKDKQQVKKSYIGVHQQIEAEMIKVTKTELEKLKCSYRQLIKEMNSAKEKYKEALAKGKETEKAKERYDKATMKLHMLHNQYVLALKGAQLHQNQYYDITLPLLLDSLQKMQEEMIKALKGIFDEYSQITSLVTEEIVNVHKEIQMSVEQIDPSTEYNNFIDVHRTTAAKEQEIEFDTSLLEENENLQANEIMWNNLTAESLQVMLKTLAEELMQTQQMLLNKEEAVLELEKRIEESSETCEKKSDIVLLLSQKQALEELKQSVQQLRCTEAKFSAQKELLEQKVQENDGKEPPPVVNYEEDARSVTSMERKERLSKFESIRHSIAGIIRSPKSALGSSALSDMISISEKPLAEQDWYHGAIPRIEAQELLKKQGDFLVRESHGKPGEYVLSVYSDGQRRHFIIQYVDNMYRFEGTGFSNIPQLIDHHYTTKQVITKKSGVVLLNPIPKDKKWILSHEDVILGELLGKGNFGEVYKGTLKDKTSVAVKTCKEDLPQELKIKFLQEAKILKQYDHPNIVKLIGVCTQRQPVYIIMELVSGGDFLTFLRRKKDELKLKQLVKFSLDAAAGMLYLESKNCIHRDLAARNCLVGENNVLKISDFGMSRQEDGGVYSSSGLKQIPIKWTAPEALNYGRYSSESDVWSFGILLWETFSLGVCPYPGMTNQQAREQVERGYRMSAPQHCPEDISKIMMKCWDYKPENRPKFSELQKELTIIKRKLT

Insulin receptor [14] = biological target: T3, Insulin receptor; experiment: Selectivity interaction (ProQinase) EUB0000171b INSR
[15] = biological target: aryl hydrocarbon receptor (AHR) (Homo sapiens, UniProt P35869); experiment: Selectivity interaction (Panel of kinases, GPCRs, ion channels and transporters (enzymatic assay)) EUB0000223bCl AHR
[16] = biological target: Beta-2 adrenergic receptor (Homo sapiens, UniProt P07550); experiment: Selectivity interaction (Panel of kinases, GPCRs, ion channels and transporters (enzymatic assay)) EUB0000266bCl ADRB2
[17] = biological target: Glutamate receptor ionotropic, NMDA 2B (Homo sapiens) (UniProt Q13224); experiment: Selectivity interaction (Panel of kinases, GPCRs, ion channels and transporters (enzymatic assay)) EUB0000266bCl GRIN2B
Glutamate receptor ionotropic, NMDA 2B (Homo sapiens), sequence (Q13224 27-1484 limits assumed): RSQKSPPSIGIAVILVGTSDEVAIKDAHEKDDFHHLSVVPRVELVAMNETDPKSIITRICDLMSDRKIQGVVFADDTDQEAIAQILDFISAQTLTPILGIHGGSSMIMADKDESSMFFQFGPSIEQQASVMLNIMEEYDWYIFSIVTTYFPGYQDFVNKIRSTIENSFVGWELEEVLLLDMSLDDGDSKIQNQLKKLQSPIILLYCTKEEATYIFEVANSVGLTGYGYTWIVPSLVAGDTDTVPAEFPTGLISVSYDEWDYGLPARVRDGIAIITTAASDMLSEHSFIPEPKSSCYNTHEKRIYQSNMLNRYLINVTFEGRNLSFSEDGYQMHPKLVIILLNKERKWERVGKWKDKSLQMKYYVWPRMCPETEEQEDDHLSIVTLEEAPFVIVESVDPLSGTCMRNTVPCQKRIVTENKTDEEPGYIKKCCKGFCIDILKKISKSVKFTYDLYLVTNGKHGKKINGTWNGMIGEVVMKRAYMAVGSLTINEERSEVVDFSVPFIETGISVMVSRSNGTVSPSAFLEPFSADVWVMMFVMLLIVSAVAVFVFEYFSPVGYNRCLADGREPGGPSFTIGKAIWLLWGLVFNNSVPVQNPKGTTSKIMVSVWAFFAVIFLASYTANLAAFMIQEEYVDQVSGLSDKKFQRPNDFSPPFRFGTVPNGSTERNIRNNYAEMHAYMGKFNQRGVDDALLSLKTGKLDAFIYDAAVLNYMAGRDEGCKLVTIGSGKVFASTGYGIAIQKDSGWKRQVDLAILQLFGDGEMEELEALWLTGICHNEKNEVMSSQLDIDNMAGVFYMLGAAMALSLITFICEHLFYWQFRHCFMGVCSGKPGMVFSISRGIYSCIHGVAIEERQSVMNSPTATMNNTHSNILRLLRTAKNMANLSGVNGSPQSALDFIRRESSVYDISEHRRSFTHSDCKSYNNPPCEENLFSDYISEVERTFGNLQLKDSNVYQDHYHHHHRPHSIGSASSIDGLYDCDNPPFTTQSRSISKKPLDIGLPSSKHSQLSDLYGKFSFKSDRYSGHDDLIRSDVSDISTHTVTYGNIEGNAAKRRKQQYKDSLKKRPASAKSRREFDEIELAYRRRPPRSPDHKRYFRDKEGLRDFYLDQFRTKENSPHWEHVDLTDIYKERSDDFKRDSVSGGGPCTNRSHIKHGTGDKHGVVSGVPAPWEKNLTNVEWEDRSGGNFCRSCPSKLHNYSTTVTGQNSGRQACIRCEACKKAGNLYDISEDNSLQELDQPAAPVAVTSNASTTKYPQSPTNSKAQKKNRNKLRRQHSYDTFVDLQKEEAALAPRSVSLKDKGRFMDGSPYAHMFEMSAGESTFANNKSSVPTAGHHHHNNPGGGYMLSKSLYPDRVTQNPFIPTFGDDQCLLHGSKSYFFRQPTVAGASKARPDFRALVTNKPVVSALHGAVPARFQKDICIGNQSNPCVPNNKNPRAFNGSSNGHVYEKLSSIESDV

[18] = biological target: Wee1-like protein kinase (Homo sapiens) (UniProt P30291); experiment: Selectivity interaction (KinomeScan (DiscoverX)) EUB0000666a WEE1; conditions: at 10 µM
[19] = biological target: Tyrosine-protein kinase Lck (Homo sapiens, UniProt P06239); experiment: Selectivity interaction (Kinase panel (Z-LYTE Assay)) EUB0001632a LCK; conditions: at 10 µM
Tyrosine-protein kinase Lck, sequence (P06239 2-509 limits assumed): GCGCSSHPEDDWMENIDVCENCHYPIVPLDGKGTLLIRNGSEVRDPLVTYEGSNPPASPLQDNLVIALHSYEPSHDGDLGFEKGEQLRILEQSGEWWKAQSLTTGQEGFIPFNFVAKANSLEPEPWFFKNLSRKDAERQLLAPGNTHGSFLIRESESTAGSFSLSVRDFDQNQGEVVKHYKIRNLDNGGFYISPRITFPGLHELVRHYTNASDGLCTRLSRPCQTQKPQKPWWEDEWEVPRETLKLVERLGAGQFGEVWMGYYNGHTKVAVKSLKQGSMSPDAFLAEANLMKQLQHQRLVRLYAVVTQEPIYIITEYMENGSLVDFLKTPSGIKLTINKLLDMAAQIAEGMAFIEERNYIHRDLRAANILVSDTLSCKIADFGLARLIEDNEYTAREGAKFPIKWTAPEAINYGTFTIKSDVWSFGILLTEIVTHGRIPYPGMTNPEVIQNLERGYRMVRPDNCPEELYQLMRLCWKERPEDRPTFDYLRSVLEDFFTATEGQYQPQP

[20] = biological target: Serine/threonine-protein kinase OSR1 (Homo sapiens) (UniProt O95747); experiment: Selectivity interaction (LanthaScreen Eu Kinase Binding Assay) EUB0001632a OXSR1; conditions: at 10 µM
[21] = biological target: Calcium/calmodulin-dependent protein kinase type II subunit beta (Homo sapiens) (UniProt Q13554); experiment: Selectivity interaction (Kinase panel (Z-LYTE Assay)) EUB0001632a CAMK2B; conditions: at 10 µM

SMILES: Cc1cc(C)cc([C@@H]2c3cc(C)ccc3NC(=O)CN2C(=O)c2ccc(Br)s2)c1
- % of inhibition [1]: 4%

- % of control [2]: 100%
SMILES: CCN(CC)CCCCNc1ncc2cc(-c3cc(OC)cc(OC)c3)c(NC(=O)NC(C)(C)C)nc2n1

- % of control [3]: 104%
- % of control [4]: 123%
SMILES: CC(=O)Nc1cccc(-n2c(=O)n(C3CC3)c(=O)c3c(Nc4ccc(I)cc4F)n(C)c(=O)c(C)c32)c1

SMILES: O[C@H]1CC[C@H](Nc2ncc3nc(Nc4c(F)cc(F)cc4F)n([C@H]4CCOC4)c3n2)CC1
- % of control [5]: 84%

SMILES: CNC(=O)Nc1ccc(-c2nc(N3CC4CCC(C3)O4)c3cnn(C4CCC5(CC4)OCCO5)c3n2)cc1
- % of inhibition (Insulin receptor [6]): 4%
- % of inhibition [7]: 6%

SMILES: Cc1cc([C@@H](C)Nc2ccccc2C(=O)O)c2nc(N3CCOCC3)cc(=O)n2c1 [AZD-6482]
- % of control [8]: 100%
- % of control [9]: 100%
- % of control [10]: 100%

- % of inhibition ([11]; at 0.01 µM): 19.6%
- % of inhibition ([11]; at 0.04 µM): -3.8%
- % of inhibition ([11]; at 0.2 µM): -4.9%
- % of inhibition ([11]; at 1 µM): -9.2%
- % of inhibition ([11]; at 5 µM): 21.8%
SMILES: CC[C@@H]1[C@H](F)C(=O)N[C@@H]1COc1nccc2cc(C(N)=O)c(OC)cc12 [ZIMLOVISERTIB]

SMILES: COc1cc(N(C)c2ccnc3ccc(C(F)(F)F)cc23)cc(OC)c1OC
- % binding [12]: 98%
- % binding [13]: 95%

- % of control (Insulin receptor [14]; at 1 µM): 91%
- % of control (Insulin receptor [14]; at 5 µM): 83%
SMILES: C=CC(=O)Nc1cccc(C(=O)Nc2ccc(Nc3cc(-c4[nH]c(SC)nc4C)ccn3)cc2)c1

SMILES: COc1cc(C(=O)N2CC[C@@H](O)[C@@H](N)C2)cc2nc(-c3cc4ccccc4n3CC3CC3)n(C)c12
- XC50 [15]: 79.4 µM

- pXC50 [16]: < 4.5 M
- pXC50 [17]: < 4.3 M
SMILES: CCn1c(-c2nc3cc(C(=O)N4CCCC(N)C4)ccc3n2C)cc2ccccc21 (stereo unspecified)

SMILES: O=C(NOC[C@H](O)CO)c1ccc(F)c(F)c1Nc1ccc(I)cc1F
- % of control [18]: 67%

- % of control [19]: 11.9%
- % of inhibition [20]: -23%
- % of control [21]: 1.33%
SMILES: Cn1cc(-n2cnc3c(NCc4nc5cc(Cl)c(Cl)cc5[nH]4)nc(N4CCOCC4)nc32)cn1
